Results taken from patent US20180298010A1, “PRMT5 INHIBITORS AND USES THEREOF” (Epizyme, Inc., priority 2012, published 2018).

Tests used:
[1] = test system: Symmetric di-Methyl Arginine in Z-138 cells; assay: Z-138 Methylation Assay (In Cell Western for symmetric di-methyl arginine and DNA content); format: cell-based; conditions: Homo sapiens, read-out: ICW EC50
Description: Z-138 suspension cells were purchased from ATCC (American Type Culture Collection, Manassas, Va.). RPMI/Glutamax medium, penicillin-streptomycin, heat inactivated fetal bovine serum, and D-PBS were purchased from Life Technologies, Grand Island, N.Y., USA. Odyssey blocking buffer, 800CW goat anti-rabbit IgG (H+L) antibody, and Licor Odyssey infrared scanner were purchased from Licor Biosciences, Lincoln, Nebr., USA. Symmetric di-methyl arginine antibody was purchased from EMD Millipore, Billerica, Mass., USA. 16% Paraformaldehyde was purchased from Electron Microscopy Sciences, Hatfield, Pa., USA.
Z-138 suspension cells were maintained in growth medium (RPMI 1640 supplemented with 10% v/v heat inactivated fetal bovine serum and 100 units/mL penicillin-streptomycin) and cultured at 37° C. under 5% CO2 […]
Calculations: First, the ratio for each well was determined by:
Each plate included fourteen control wells of DMSO only treatment (minimum inhibition) as well as fourteen control wells for maximum inhibition treated with 3 μM of a reference compound (Background wells). The average of the ratio values for each control type was calculated and used to determine the percent inhibition for each test well in the plate. […] Percent inhibition was determined and IC50 curves were generated using triplicate wells per concentration of compound.

Z-138 cells = assay: Z-138 Proliferation Assay (Cell Titer Glo, 5 days); format: cell-based; conditions: Homo sapiens, 120 h
Description: Z-138 Proliferation Assay
Z-138 suspension cells were purchased from ATCC (American Type Culture Collection, Manassas, Va.). RPMI/Glutamax medium, penicillin-streptomycin, heat inactivated fetal bovine serum were purchased from Life Technologies, Grand Island, N.Y., USA. V-bottom polypropylene 384-well plates were purchased from Greiner Bio-One, Monroe, N.C., USA. Cell culture 384-well white opaque plates were purchased from Perkin Elmer, Waltham, Mass., USA. Cell-Titer Glo® was purchased from Promega Corporation, Madison, Wis., USA. SpectraMax M5 plate reader was purchased from Molecular Devices LLC, Sunnyvale, Calif., USA.
Z-138 suspension cells were maintained in growth medium (RPMI 1640 supplemented with 10% v/v heat inactivated fetal bovine serum and cultured at 37° C. under 5% CO2 Under assay conditions, cells were incubated in assay medium (RPMI 1640 supplemented with 10% v/v heat inactivated fetal bovine serum and 100 units/mL penicillin-streptomycin) at 37° C. under 5% CO2.
For the assessment of the effect of compounds on the proliferation of the Z-138 cell line, exponentially growing cells were plated in 384-well white opaque plates at a density of 10,000 cells/ml in a final volume of 50 μl of assay medium. A compound source plate was prepared by performing triplicate nine-point 3-fold serial dilutions in DMSO, beginning at 10 mM (final top concentration of compound in the assay was 20 μM and the DMSO was 0.2%). A 100 nL aliquot from the compound stock plate was added to its respective well in the cell plate. […] After addition of compounds, assay plates were incubated for 5 days at 37° C., 5% CO2, relative humidity>90%.
Cell viability was measured by quantitation of ATP present in the cell cultures, adding 35 μl of Cell Titer Glo® reagent to the cell plates. Luminescence was read in the SpectraMax M5 microplate reader. The concentration of compound inhibiting cell viability by 50% was determined using a 4-parametric fit of the normalized dose response curves.

EC50 [1]: 1 to 10 µM
Compound: OC(COc1cccc(-c2ccc3ncsc3c2)c1)CN1CCc2ccccc2C1 (centres unmarked) [Compound 123, 1-(3-(benzo[d]thiazol-6-yl)phenoxy)-3-(3,4-dihydroisoquinolin-2(1H)-yl)propan-2-ol]
EC50 (Z-138 cells): 10 to 40 µM
